Consider 23 compounds from article PMC9738591, “N-[1,3-Dialkyl(aryl)-2-oxoimidazolidin-4-ylidene]-aryl(alkyl)sulphonamides as Novel Selective Human Cannabinoid Type 2 Receptor (hCB2R) Ligands; Insights into the Mechanism of Receptor Activation/Deactivation” (Molecules, 2022).

The structures appear in SMILES notation. Where two headings read alike, the source gives them in different places.

One data set addresses human CB2R (Homo sapiens, UniProt P34972). Description: Competition binding assay, displacement of [3H]-CP-55,940 from membranes of HEK-293 cells overexpressing CB2R. More on the design: purchased Perkin-Elmer, Italy; host or cells: HEK-293 cells (membranes). As to conditions: for Ki: [3H]-CP-55,940 displacement, HEK-293 membranes, 90 min at 30 °C, Cheng-Prusoff, read-out: Ki hCB2R (µM ± S.E.). As to the method: (§1) The binding affinities (Ki values) of the compounds for human recombinant hCB1R and hCB2R were determined as previously described, using SR144528 as a reference compound [30], and are reported in Table 1.
(§2) Compound affinity for CB1R and CB2R was measured as previously reported. […] Competition curves were performed by displacing [^3H]-CP-55 940 with increasing concentrations of compounds (0.1 nM–10 or 25 μM). […] All compounds were tested following the procedure described by the manufacturer (Perkin-Elmer, Italy). Displacement curves were generated by incubating drugs with [^3H]-CP-55 940 for 90 min at 30 °C. Ki values were calculated by applying the Cheng−Prusoff equation to the IC50 values for the displacement of the bound radioligand by increasing concentrations of the test compound. Data represent the mean values of three independent experiments performed in duplicate and are expressed as the average of Ki (µM) ± standard deviation. Data were analyzed using PRISM.9.3 software (GraphPad Software Inc, San Diego, CA, USA).

A further data set has as its target T1, human recombinant CB1R (Homo sapiens, UniProt P21554).
T1 construct: purchased Perkin-Elmer, Italy; host or cells: HEK-293 cells (membranes)
Put plainly: Competition binding assay, displacement of [3H]-CP-55,940 from membranes of HEK-293 cells overexpressing CB1R. The settings on record: for Ki: [3H]-CP-55,940 displacement, HEK-293 membranes, 90 min at 30 °C, Cheng-Prusoff, read-out: Ki hCB1R (µM ± S.E.); for inhibition at 10 µM: read-out: % Displacement/ Max. Conc. Tested, hCB1R. As to the method:
as §1, §2

Where [1] appears, read: max conc. tested 10 µM, read-out: % Displacement/ Max Conc. Tested, hCB2R (converted).

Sequence of human CB2R (P34972 whole entry): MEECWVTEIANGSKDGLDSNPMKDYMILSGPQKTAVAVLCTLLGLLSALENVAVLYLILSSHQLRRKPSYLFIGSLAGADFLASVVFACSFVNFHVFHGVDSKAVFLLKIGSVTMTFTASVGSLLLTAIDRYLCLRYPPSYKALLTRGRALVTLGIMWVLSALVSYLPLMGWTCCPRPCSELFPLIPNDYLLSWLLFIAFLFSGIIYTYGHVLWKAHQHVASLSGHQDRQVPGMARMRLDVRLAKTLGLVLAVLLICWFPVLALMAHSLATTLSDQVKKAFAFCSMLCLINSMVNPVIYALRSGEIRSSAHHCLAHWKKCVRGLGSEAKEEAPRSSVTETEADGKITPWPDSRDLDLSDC
T1 sequence (P21554 whole entry): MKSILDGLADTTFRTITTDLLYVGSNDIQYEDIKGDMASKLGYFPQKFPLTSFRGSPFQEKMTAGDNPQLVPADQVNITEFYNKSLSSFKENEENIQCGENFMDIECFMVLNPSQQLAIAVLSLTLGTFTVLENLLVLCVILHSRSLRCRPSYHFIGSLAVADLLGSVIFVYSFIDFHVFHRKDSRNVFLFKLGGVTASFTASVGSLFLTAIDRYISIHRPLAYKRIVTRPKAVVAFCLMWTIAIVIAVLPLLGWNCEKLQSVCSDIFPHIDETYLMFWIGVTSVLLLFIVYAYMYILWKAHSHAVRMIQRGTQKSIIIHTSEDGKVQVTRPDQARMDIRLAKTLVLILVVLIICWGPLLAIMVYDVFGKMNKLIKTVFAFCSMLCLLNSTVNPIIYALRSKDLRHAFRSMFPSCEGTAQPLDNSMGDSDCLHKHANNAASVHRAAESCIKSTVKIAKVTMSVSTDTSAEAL

Turning to `CCN1CC(=NS(=O)(=O)c2ccc(C)cc2)N(CC)C1=O` [Compound 1, N-[1,3-Diethyl-2-oxoimidazolidin-4-ylidene]-4-methylbenzenesulfonamide], the inhibition constant (Ki) at human CB2R and at human recombinant CB1R was more than 10 µM each time. Moreover, the inhibition at 10 µM on human CB2R (setting [1]) is 7.7%; at human recombinant CB1R (max conc. tested 10 µM) it was 8.78%.

As to `CN1CC(=NS(=O)(=O)c2ccccc2)N(C)C1=O` [Compound 4a, N-[1,3-Dimethyl-2-oxoimidazolidin-4-ylidene]benzenesulfonamide], the Ki on human CB2R and at human recombinant CB1R was more than 10 µM each time. In addition, the inhibition at 10 µM at human CB2R (setting [1]) is 6.19%; on human recombinant CB1R (max conc. tested 10 µM), 32.8%.

Consider `Cc1ccc(S(=O)(=O)N=C2CN(C)C(=O)N2C)cc1` [Compound 4b, N-[1,3-Dimethyl-2-oxoimidazolidin-4-ylidene]-4-methylbenzenesulfonamide], for which the Ki at human CB2R and at human recombinant CB1R was more than 10 µM in each case. Further, the inhibition at 10 µM at human CB2R (setting [1]) was 7.08%; at human recombinant CB1R (max conc. tested 10 µM), 26.9%.

For `CN1CC(=NS(=O)(=O)c2ccc(Cl)cc2)N(C)C1=O` [Compound 4c, 4-Chloro-N-[1,3-dimethyl-2-oxoimidazolidin-4-ylidene]benzenesulfonamide], the inhibitory constant (Ki) at human CB2R and at human recombinant CB1R was more than 10 µM throughout. The figures for the inhibition at 10 µM on human CB2R (setting [1]) and on human recombinant CB1R (max conc. tested 10 µM) were 12.3% and 47.5%, respectively.

For the compound `CN1CC(=NS(=O)(=O)c2ccc(Br)cc2)N(C)C1=O` [Compound 4d, 4-Bromo-N-[1,3-dimethyl-2-oxoimidazolidin-4-ylidene]benzenesulfonamide], the inhibition constant (Ki) on human CB2R and on human recombinant CB1R was more than 10 µM throughout. Also, the inhibition at 10 µM on human CB2R (setting [1]) is 10.7%; on human recombinant CB1R (max conc. tested 10 µM), 14.9%.

As for `CCN1CC(=NS(=O)(=O)c2ccccc2)N(CC)C1=O` [Compound 4e, N-[1,3-Diethyl-2-oxoimidazolidin-4-ylidene]benzenesulfonamide], the Ki at human CB2R and on human recombinant CB1R was more than 10 µM in each case. The inhibition at 10 µM on human CB2R (setting [1]) is 7.72%; on human recombinant CB1R (max conc. tested 10 µM) it was 22.7%.

As to `CCN1CC(=NS(=O)(=O)c2ccc(Cl)cc2)N(CC)C1=O` [Compound 4f, 4-Chloro-N-[1,3-diethyl-2-oxoimidazolidin-4-ylidene]benzenesulfonamide], the Ki at human CB2R and on human recombinant CB1R was more than 10 µM throughout. The values for the inhibition at 10 µM at human CB2R (setting [1]) and at human recombinant CB1R (max conc. tested 10 µM) were 14.9% and 17.8%, respectively.

With `CCN1CC(=NS(=O)(=O)c2ccc(Br)cc2)N(CC)C1=O` [Compound 4g, 4-Bromo-N-[1,3-diethyl-2-oxoimidazolidin-4-ylidene]benzenesulfonamide], the Ki on human CB2R and on human recombinant CB1R was more than 10 µM in each case. The results for the inhibition at 10 µM at human CB2R (setting [1]) and at human recombinant CB1R (max conc. tested 10 µM) were 13.4% and 20.6%, respectively.

For `CC(C)(C)N1CC(=NS(C)(=O)=O)N(c2ccccc2)C1=O` [Compound 9a, N-[1-tert-Butyl-2-oxo-3-phenylimidazolidin-4-ylidene]-methanesulfonamide], the Ki on human CB2R and at human recombinant CB1R was more than 10 µM each time. The inhibition at 10 µM was 8.84% on human CB2R (setting [1]) and 9.48% at human recombinant CB1R.

`CC(C)(C)N1CC(=NS(=O)(=O)c2ccccc2)N(c2ccccc2)C1=O` [Compound 9b, N-[1-tert-Butyl-2-oxo-3-phenylimidazolidin-4-ylidene]benzenesulfonamide]: the Ki on human CB2R and on human recombinant CB1R was more than 10 µM throughout. The inhibition at 10 µM at human CB2R (setting [1]) was 22.6%; on human recombinant CB1R, 12%.

On to `Cc1ccc(S(=O)(=O)N=C2CN(C(C)(C)C)C(=O)N2c2ccccc2)cc1` [Compound 9c, N-[1-tert-Butyl-2-oxo-3-phenylimidazolidin-4-ylidene]-4-methylbenzenesulfonamide], for which the Ki on human CB2R and at human recombinant CB1R was more than 10 µM throughout. In addition, the inhibition at 10 µM is 5.39% on human CB2R (setting [1]) and 7.22% on human recombinant CB1R.

On to `CC(C)(C)N1CC(=NS(=O)(=O)c2ccc(Br)cc2)N(c2ccccc2)C1=O` [Compound 9d, 4-Bromo-N-[1-tert-butyl-2-oxo-3-phenylimidazolidin-4-ylidene]benzenesulfonamide], for which, at human CB2R, the Ki was more than 10 µM. The inhibition at 10 µM on human CB2R (read-out: % Displacement/ Max Conc. Tested, hCB2R) was found to be 53.5%; on human recombinant CB1R (max conc. tested 10 µM), 17.4%.

Consider `CC(C)(C)N1CC(=NS(=O)(=O)c2cccc(Br)c2)N(c2ccccc2)C1=O` [Compound 9e, 3-Bromo-N-[1-tert-butyl-2-oxo-3-phenylimidazolidin-4-ylidene]benzenesulfonamide], for which the Ki on human CB2R and on human recombinant CB1R was more than 10 µM each time. The inhibition at 10 µM on human CB2R (setting [1]) is 24.1%; at human recombinant CB1R (max conc. tested 10 µM), 4.64%.

As for `Cc1cc(C)c(S(=O)(=O)N=C2CN(C(C)(C)C)C(=O)N2c2ccccc2)c(C)c1` [Compound 9f, N-[1-tert-Butyl-2-oxo-3-phenylimidazolidin-4-ylidene]-2,4,6-trimethylbenzenesulfonamide], the Ki at human CB2R and on human recombinant CB1R was more than 10 µM throughout. For the same compound, the inhibition at 10 µM was 47.8% on human CB2R (setting [1]) and 0% on human recombinant CB1R (max conc. tested 10 µM).

Consider `CC(C)(C)N1CC(=NS(=O)(=O)c2cccc3ccccc23)N(c2ccccc2)C1=O` [Compound 9g, N-[1-tert-Butyl-2-oxo-3-phenylimidazolidin-4-ylidene]naphthalene-1-sulfonamide], for which the Ki on human CB2R and on human recombinant CB1R was more than 10 µM throughout. Also, the inhibition at 10 µM was 11% at human CB2R (setting [1]) and 14.8% on human recombinant CB1R.

As for `CC(C)(C)N1CC(=NS(=O)(=O)c2ccc3ccccc3c2)N(c2ccccc2)C1=O` [Compound 9h, N-[1-tert-Butyl-2-oxo-3-phenylimidazolidin-4-ylidene]naphthalene-2-sulfonamide], the Ki on human CB2R and on human recombinant CB1R was more than 10 µM in each case. The inhibition at 10 µM on human CB2R (setting [1]) was 35.6%; at human recombinant CB1R, 8.35%.

Turning to `CC(C)(C)N1CC(=NS(C)(=O)=O)N(CC2CC2)C1=O` [Compound 10a, N-[1-tert-Butyl-3-cyclopropylmethyl-2-oxoimidazolidin-4-ylidene]methanesulfonamide], the melting point fell in the range of 83.5 to 84 °C. On human CB2R, the Ki is more than 10 µM. For the same compound, the inhibition at 10 µM on human CB2R (setting [1]) is 13.4%. Besides, on human recombinant CB1R, the Ki was more than 10 µM and the inhibition at 10 µM amounted to 16.3%.

The compound `Cc1ccc(S(=O)(=O)N=C2CN(C(C)(C)C)C(=O)N2CC2CC2)cc1` [Compound 10c, N-[1-tert-Butyl-3-cyclopropylmethyl-2-oxoimidazolidin-4-ylidene]-4-methylbenzenesulfonamide] registered a melting point of 104.5 to 105 °C. Besides, the Ki at human CB2R came to 1.47 ± 0.05 µM. For the same compound, on human CB2R (max conc. tested 25 µM, read-out: % Displacement/ Max Conc. Tested, hCB2R (converted)), the inhibition at 25 µM was 89.5%. Moreover, on human recombinant CB1R, the Ki was more than 10 µM and the inhibition at 10 µM came to 0%.

In turn, `CC(C)(C)N1CC(=NS(=O)(=O)c2ccc(Br)cc2)N(CC2CC2)C1=O` [Compound 10d, 4-Bromo-N-[1-tert-Butyl-3-cyclopropylmethyl-2-oxoimidazolidin-4-ylidene]benzenesulfonamide] came in with a melting point of 98 to 98.5 °C. In addition, on human CB2R, the Ki turned out to be 0.83 ± 0.25 µM. Further, the inhibition at 10 µM on human CB2R (setting [1]) was 77.2%. Moreover, at human recombinant CB1R, the Ki is more than 10 µM and the inhibition at 10 µM was determined as 22.2%.

With `CC(C)(C)N1CC(=NS(=O)(=O)c2ccc3ccccc3c2)N(CC2CC2)C1=O` [Compound 10h, N-[1-tert-Butyl-3-cyclopropylmethyl-2-oxoimidazolidin-4-ylidene]naphthalene-2-sulfonamide], the inhibition constant (Ki) is 0.78 ± 0.17 µM on human CB2R and more than 10 µM on human recombinant CB1R. For the same compound, the inhibition at 10 µM on human CB2R (setting [1]) was 72.3%; on human recombinant CB1R, 8.18%.

On to `CC(C)N1CC(=NS(=O)(=O)c2cccc3ccccc23)N(CC2CC2)C1=O` [Compound 13, N-[3-(cyclopropylmethyl)-2-oxo-1-(propan-2-yl)imidazolidin-4-ylidene]naphthalene-1-sulfonamide], for which the figures for the Ki at human CB2R and at human recombinant CB1R were 0.8 ± 0.02 µM and more than 10 µM, respectively. The inhibition at 10 µM was 78.3% at human CB2R (setting [1]) and 4.63% on human recombinant CB1R.

In the case of `Cc1ccc(S(=O)(=O)N=C2CN(C(C)(C)C)C(=O)N2CC(C)C)cc1` [Compound 14, N-[1-tert-Butyl-3-(2-methylpropyl)-2-oxoimidazolidin-4-ylidene]-4-methylbenzene-1-sulfonamide], the Ki at human CB2R and on human recombinant CB1R was more than 10 µM each time. In addition, the inhibition at 10 µM was 47.8% at human CB2R (setting [1]) and 0.02% on human recombinant CB1R.

`CC(C)(C)N1C(=O)N(CC2CC2)CC1=NS(=O)(=O)c1ccccc1` [Compound 15, N-[3-tert-Butyl-1-(cyclopropylmethyl)-2-oxoimidazolidin-4-ylidene]benzenesulfonamide]: the figures for the Ki at human CB2R and at human recombinant CB1R were 1.61 ± 0.16 µM and more than 10 µM, respectively. For the same compound, the inhibition at 10 µM on human CB2R (setting [1]) was 73.9%; on human recombinant CB1R, 0.01%.
